{"source": "patent EP0194548A2", "about": "“Sulfonylaminoethyl compounds, medicines containing these compounds and process for their preparation” (Dr. Karl Thomae GmbH, priority 1985, dated 1986)", "key": {"[1]": {"test_system": "Mäusen", "test": "Orientating acute toxicity after a single oral dose", "assay_type": "in vivo", "settings": "mice, groups of 10, observation time 14 days", "from_the_text": "Die akute Toxizität der zu untersuchenden Substanzen wurde orientierend an Gruppen von je 10 Mäusen nach oraler Gabe einer Einzeldosis bestimmt (Beobachtungszeit 14 Tage): […]"}, "[2]": {"test_system": "Thrombozytenaggregation in plättchenreichem Plasma", "test": "Collagen-induced platelet aggregation (method of BORN and GROSS) in platelet-rich plasma", "assay_type": "cell-based, Versuchspersonen", "settings": "10 min, plasma incubated 10 min with substance at 37°C, 50% change of optical density", "from_the_text": "Die Thrombozytenaggregation wird nach der Methode von BORN und GROSS (J. Physiol. 170, 397 (1964)) in plättchenreichem Plasma gesunder Versuchspersonen gemessen. Zur Gerinnungshemmung wird das Blut mit […] 3,14 % im Volumenverhältnis 1:10 versetzt\nCollagen-induzierte Aggregation\nDer Verlauf der Abnahme der optischen Dichte der Plättchensuspension wird nach Zugabe der aggregationsauslösenden Substanz photometrisch gemessen und registriert. Aus dem Neigungswinkel der Dichtekurve wird auf die Aggregationsgeschwindigkeit geschlossen. Der Punkt der Kurve, bei dem die größte Lichtdurchlässigkeit vorliegt, dient zur Berechnung der \"optical dens^ity\".\nDie Collagen-Menge wird möglichst gering gewählt, aber doch so, daß sich eine irreversibel verlaufende Reaktionskurve ergibt. Verwendet wird das handelsübliche Collagen der Firma Hormonchemie, München.\nVor der Collagen-Zugabe wird das Plasma jeweils 10 Minuten mit der Substanz bei 37°C inkubiert.\nAus den erhaltenen Meßzahlen wird graphisch eine EC50 berechnet, die sich auf eine 50%ige Änderung der \"optical density\" im Sinne einer Aggregationshemmung bezieht."}, "[3]": {"test_system": "Mäusen", "test": "Prolongation of bleeding time (tail tip cut) after oral dosing", "assay_type": "in vivo", "settings": "conscious mice, 10 mg/kg p.o., 1 hour after dosing, 5 animals per test, versus controls without substance", "procedure": "Da im Falle einer Verletzung die erste rasche Blutstillung durch Thrombozyten geschieht, läßt sich beim Setzen einer standardisierten Verletzung die Funktion der Thrombozylen mit Hilfe der Messung der Blutungszeit gut bestimmen. Die normale Blutungszeit beträgt beim Menschen etwa 1 bis 3 min., setzt aber leistungsfähige und in genügender Zahl vorhandene Thrombozyten voraus. Bei einer normalen Thrombozytenzahl weist also eine verlängerte Blutungszeit auf eine gestörte Funktion der Thrombozyten hin. Wir finden dies z.B. bei einigen angeborenen Thrombozytenfunktionsstörungen. Will man auf der anderen Seite die Neigung zu spontanem Zusammenballen der Thrombozyten mit der Folge von Gefäßverschlüssen im arteriellen System durch Medikamente verhindern, so muß folglich bei einer erfolgreichen thrombozytenwirksamen Therapie die Blutungszeit unter Substanzeinfluß verlängert werden. Bei einer thrombozytenwirksamen Substanz ist also eine Verlängerung der Blutungszeit und - da das plasmatische Gerinnungssystem ja nicht berührt wird -eine normale Blutgerinnungszeit zu erwarten.\nZur Bestimmung der Blutungszeit wurden die zu untersuchenden Substanzen wachen Mäusen in einer Dosis von 10 mg/kg p.o. appliziert. Nach einer Stunde wurde von der Schwanzspitze jedes Tieres ca. 0,5 mm abgeschnitten und das austretende Blut in Abständen von 30 Sekunden bis zum Sistieren der Blutung vorsichtig mit einem Filterpapier abgetupft. Die Zahl der so erhaltenen Bluttropfen ergibt ein Maß für die Blutungszeit (5 Tiere pro Versuch). Die folgenden Zahlenangaben bedeuten Prozent-Verlängerung gegenüber Kontrollen ohne Substanzgabe: […]"}}}
{"compound": "O=C1CCC(c2ccc(CCNS(=O)(=O)c3ccccc3)cc2)=NN1", "note": "[Substanz C, 6-[4-(2-Benzoylsulfonylaminoäthyl)-phenyl]-4,5-dihydro-pyridazin-(2H)-3-on]", "values": [{"measurement": "Orientierende akute Toxizität", "setting": "[1]; single oral dose 1.000 mg", "result": "1.000 mg (0 von 10 Tieren gestorben)"}, {"measurement": "EC50", "setting": "[2]", "result": 3300, "unit": "nM"}, {"measurement": "Verlängerung der Blutungszeit in % nach 1 Stunde", "setting": "[3]", "result": 145, "unit": "%"}]}
{"compound": "O=C(O)CCC(=O)c1ccc(CCNS(=O)(=O)c2ccccc2)cc1", "note": "[Substanz F, 3-[4-(2-Benzolsulfonylamino-äthyl)-benzoyl]-propionsäure]", "values": [{"measurement": "Orientierende akute Toxizität", "setting": "[1]; single oral dose 250 mg", "result": "250 mg (0 von 10 Tieren gestorben)"}, {"measurement": "EC50", "setting": "[2]", "result": 3000, "unit": "nM"}, {"measurement": "Verlängerung der Blutungszeit in % nach 1 Stunde", "setting": "[3]", "result": ">266", "unit": "%"}]}
{"compound": "Cc1ccc(S(=O)(=O)NCCc2ccc(C3=NNC(=O)CC3C)cc2)cc1", "note": "(stereo not drawn) [Substanz D, 6-[4-(2-(p-Toluolsulfonyl)-aminoäthyl)-phenyl]-5-methyl-4,5-dihydro-pyridazin-(2H)-3-on]", "values": [{"measurement": "Orientierende akute Toxizität", "setting": "[1]; single oral dose 1.000 mg", "result": "1.000 mg (0 von 10 Tieren gestorben)"}, {"measurement": "EC50", "setting": "[2]", "result": 2400, "unit": "nM"}, {"measurement": "Verlängerung der Blutungszeit in % nach 1 Stunde", "setting": "[3]", "result": 187, "unit": "%"}]}
{"compound": "O=C1CCC(c2ccc(OCCNS(=O)(=O)c3ccccc3)cc2)=NN1", "note": "[Substanz E, 6-[4-(2-Benzolsulfonylaminoäthoxy)-phenyl]-4,5-dihydro-pyridazin-(2H)-3-on]", "values": [{"measurement": "Orientierende akute Toxizität", "setting": "[1]; single oral dose 1.000 mg", "result": "1.000 mg (0 von 10 Tieren gestorben)"}, {"measurement": "EC50", "setting": "[2]", "result": 3000, "unit": "nM"}, {"measurement": "Verlängerung der Blutungszeit in % nach 1 Stunde", "setting": "[3]", "result": 233, "unit": "%"}]}
{"compound": "O=C(O)CCC(=O)c1ccc(CCNS(=O)(=O)c2ccc(Cl)cc2)cc1", "note": "[Substanz A, 3-[4-(2-(4-Chlorbenzolsulfonyl)-aminoäthyl)-benzoyl]-propionsäure]", "values": [{"measurement": "Orientierende akute Toxizität", "setting": "[1]; single oral dose 1.000 mg", "result": "1.000 mg (0 von 10 Tieren gestorben)"}, {"measurement": "EC50", "setting": "[2]", "result": 4000, "unit": "nM"}, {"measurement": "Verlängerung der Blutungszeit in % nach 1 Stunde", "setting": "[3]", "result": 108, "unit": "%"}]}
{"compound": "COCCOC(=O)CCC(=O)c1ccc(CCNS(=O)(=O)c2ccccc2)cc1", "note": "[Substanz B, 3-[4-(2-Benzolsulfonylaminoäthyl)-benzoyl]-propionsäure-ß-methoxyäthylester]", "values": [{"measurement": "Orientierende akute Toxizität", "setting": "[1]; single oral dose 1.000 mg", "result": "1.000 mg (0 von 10 Tieren gestorben)"}, {"measurement": "EC50", "setting": "[2]", "result": "> 10000", "unit": "nM"}, {"measurement": "Verlängerung der Blutungszeit in % nach 1 Stunde", "setting": "[3]", "result": 110, "unit": "%"}]}
